Results: patent publication US11104671B2, “Insecticidal compounds” (SYNGENTA PARTICIPATIONS AG, priority 2017, dated 2021)

How the values were obtained:
Type in all cases: in vivo
Diabrotica balteata = Diabrotica balteata (corn root worm), maize sprouts sprayed, L2 larvae; details: 96 h, application rate 200 ppm, 4 days after infestation, L2 larvae, read-out: effect in at least one of the two categories (mortality or growth inhibition)
Experimental: Diabrotica Balteata (Corn Root Worm)
Maize sprouts placed onto an agar layer in 24-well microtiter plates were treated with aqueous test solutions prepared from 10,000 ppm DMSO stock solutions by spraying. After drying, the plates were infested with L2 larvae (6 to 10 per well). The samples were assessed for mortality and growth inhibition in comparison to untreated samples 4 days after infestation.

Euschistus heros = Euschistus heros (neotropical brown stink bug), soybean leaves sprayed, N2 nymphs; details: 120 h, application rate 200 ppm, 5 days after infestation, N2 nymphs, read-out: effect in at least one of the two categories (mortality or growth inhibition)
Experimental: Euschistus heros (Neotropical Brown Stink Bug)
Soybean leaves on agar in 24-well microtiter plates were sprayed with aqueous test solutions prepared from 10,000 ppm DMSO stock solutions. After drying the leaves were infested with N2 nymphs. The samples were assessed for mortality and growth inhibition in comparison to untreated samples 5 days after infestation.

Plutella xylostella = Plutella xylostella (diamond back moth), artificial diet, L2 larvae; details: 120 h, application rate 200 ppm, 5 days after infestation, L2 larvae, read-out: effect in at least one of the two categories (mortality or growth inhibition)
Experimental: Plutella xylostella (Diamond Back Moth)
24-well microtiter plates with artificial diet were treated with aqueous test solutions prepared from 10,000 ppm DMSO stock solutions by pipetting. After drying, the plates were infested with L2 larvae (10 to 15 per well). The samples were assessed for mortality and growth inhibition in comparison to untreated samples 5 days after infestation.

Spodoptera littoralis = Spodoptera littoralis (Egyptian cotton leaf worm), cotton leaf discs, L1 larvae; details: foliar, 72 h, application rate 200 ppm, 3 days after infestation, L1 larvae, read-out: control (mortality, anti-feedant effect or growth inhibition)
Experimental: Spodoptera littoralis (Egyptian Cotton Leaf Worm)
Cotton leaf discs were placed onto agar in 24-well microtiter plates and sprayed with aqueous test solutions prepared from 10,000 ppm DMSO stock solutions. After drying the leaf discs were infested with five L1 larvae. The samples were assessed for mortality, anti-feeding effect, and growth inhibition in comparison to untreated samples 3 days after infestation. Control of Spodoptera littoralis by a test sample is given when at least one of the categories mortality, anti-feedant effect, and growth inhibition is higher than the untreated sample.

Tetranychus urticae = Tetranychus urticae (two-spotted spider mite), feeding/contact activity; details: foliar, 192 h, application rate 200 ppm, 8 days after infestation, bean leaf discs, read-out: mortality on mixed population (mobile stages)
Experimental: Tetranychus urticae (Two-Spotted Spider Mite): Feeding/Contact Activity
Bean leaf discs on agar in 24-well microtiter plates were sprayed with aqueous test solutions prepared from 10,000 ppm DMSO stock solutions. After drying the leaf discs were infested with a mite population of mixed ages. The samples were assessed for mortality on mixed population (mobile stages) 8 days after infestation.

Myzus persicae [1] = assay: Myzus persicae (green peach aphid), intrinsic activity; details: 120 h, test rate 12 ppm, 5 days after infestation, sucrose solution, infested pea seedlings, read-out: mortality
Excerpt: Myzus persicae (Green Peach Aphid). Intrinsic Activity
Test compounds prepared from 10,000 ppm DMSO stock solutions were applied by pipette into 24-well microtiter plates and mixed with sucrose solution. The plates were closed with a stretched Parafilm. A plastic stencil with 24 holes was placed onto the plate and infested pea seedlings were placed directly on the Parafilm. The infested plate was closed with a gel blotting paper and another plastic stencil and then turned upside down. The samples were assessed for mortality 5 days after infestation.

Myzus persicae [2] = assay: Myzus persicae (green peach aphid), feeding/contact activity; details: foliar, 144 h, application rate 200 ppm, 6 days after infestation, sunflower leaf discs, mixed ages, read-out: mortality
Experimental: Myzus persicae (Green Peach Aphid): Feeding/Contact Activity
Sunflower leaf discs were placed onto agar in a 24-well microtiter plate and sprayed with aqueous test solutions prepared from 10,000 ppm DMSO stock solutions. After drying, the leaf discs were infested with an aphid population of mixed ages. The samples were assessed for mortality 6 days after infestation.

Thrips tabaci = Thrips tabaci (onion thrips), feeding/contact activity; details: foliar, 144 h, application rate 200 ppm, 6 days after infestation, sunflower leaf discs, mixed ages, read-out: mortality
Experimental: Thrips tabaci (Onion thrips) Feeding/Contact Activity
Sunflower leaf discs were placed on agar in 24-well microtiter plates and sprayed with aqueous test solutions prepared from 10,000 ppm DMSO stock solutions. After drying the leaf discs were infested with a thrips population of mixed ages. The samples were assessed for mortality 6 days after infestation.

Cc1cc(N2CCC(c3cc(Cl)cc(Cl)c3)(C(F)(F)F)C2)ncc1C(=O)N[C@H]1CON(S(=O)(=O)N(C)C)C1 (stereo partly drawn) [Compound A15, 6-[3-(3,5-dichlorophenyl)-3-(trifluoromethyl)pyrrolidin-1-yl]-N-[(4R)-2-(dimethylsulfamoyl)isoxazolidin-4-yl]-4-methyl-pyridine-3-carboxamide]
≥ 80%: percent effect (mortality or growth inhibition) at 200 ppm (Diabrotica balteata) | percent effect (mortality or growth inhibition) at 200 ppm (Euschistus heros) | percent effect (mortality or growth inhibition) at 200 ppm (Plutella xylostella) | percent control (mortality, anti-feedant effect or growth inhibition) at 200 ppm (Spodoptera littoralis) | mortality at 200 ppm (Tetranychus urticae)

Cc1cc(C2=NCC(c3cc(Cl)c(F)c(Cl)c3)(C(F)(F)F)C2)ccc1C(=O)NC1CON(S(C)(=O)=O)C1 (centres unmarked) [Compound A7, 4-[3-(3,5-dichloro-4-fluoro-phenyl)-3-(trifluoromethyl)-2,4-dihydropyrrol-5-yl]-2-methyl-N-(2-methylsulfonylisoxazolidin-4-yl)benzamide]
≥ 80%: percent effect (mortality or growth inhibition) at 200 ppm (Diabrotica balteata) | percent effect (mortality or growth inhibition) at 200 ppm (Euschistus heros) | mortality at 12 ppm (Myzus persicae [1]) | mortality at 200 ppm (Myzus persicae [2]) | percent effect (mortality or growth inhibition) at 200 ppm (Plutella xylostella) | percent control (mortality, anti-feedant effect or growth inhibition) at 200 ppm (Spodoptera littoralis) | mortality at 200 ppm (Tetranychus urticae) | mortality at 200 ppm (Thrips tabaci)

Cc1cc(C2=NCC(c3cc(Cl)c(F)c(Cl)c3)(C(F)(F)F)C2)ccc1C(=O)N[C@H]1CON(S(=O)(=O)N(C)C)C1 (stereo partly drawn) [Compound A10, 4-[3-(3,5-dichloro-4-fluoro-phenyl)-3-(trifluoromethyl)-2,4-dihydropyrrol-5-yl]-N-[(4R)-2-(dimethylsulfamoyl)isoxazolidin-4-yl]-2-methyl-benzamide]
≥ 80%: percent effect (mortality or growth inhibition) at 200 ppm (Diabrotica balteata) | percent effect (mortality or growth inhibition) at 200 ppm (Euschistus heros) | mortality at 200 ppm (Myzus persicae [2]) | percent effect (mortality or growth inhibition) at 200 ppm (Plutella xylostella) | percent control (mortality, anti-feedant effect or growth inhibition) at 200 ppm (Spodoptera littoralis) | mortality at 200 ppm (Tetranychus urticae) | mortality at 200 ppm (Thrips tabaci)

Cc1cc(C2=COC(c3cc(Cl)cc(Cl)c3)(C(F)(F)F)C2)ccc1C(=O)N[C@H]1CON(S(=O)(=O)N(C)C)C1 (stereo partly drawn) [Compound A12, 4-[2-(3,5-dichlorophenyl)-2-(trifluoromethyl)-3H-furan-4-yl]-N-[(4R)-2-(dimethylsulfamoyl)isoxazolidin-4-yl]-2-methyl-benzamide]
≥ 80%: percent effect (mortality or growth inhibition) at 200 ppm (Diabrotica balteata) | percent effect (mortality or growth inhibition) at 200 ppm (Euschistus heros) | mortality at 200 ppm (Myzus persicae [2]) | percent effect (mortality or growth inhibition) at 200 ppm (Plutella xylostella) | percent control (mortality, anti-feedant effect or growth inhibition) at 200 ppm (Spodoptera littoralis) | mortality at 200 ppm (Tetranychus urticae) | mortality at 200 ppm (Thrips tabaci)

Cc1cc(C2=NCC(c3cc(Cl)cc(Cl)c3)(C(F)(F)F)C2)ccc1C(=O)N[C@H]1CON(S(=O)(=O)N(C)C)C1 (stereo partly drawn) [Compound A14, 4-[3-(3,5-dichlorophenyl)-3-(trifluoromethyl)-2,4-dihydropyrrol-5-yl]-N-[(4R)-2-(dimethylsulfamoyl)isoxazolidin-4-yl]-2-methyl-benzamide]
≥ 80%: percent effect (mortality or growth inhibition) at 200 ppm (Diabrotica balteata) | percent effect (mortality or growth inhibition) at 200 ppm (Euschistus heros) | mortality at 200 ppm (Myzus persicae [2]) | percent effect (mortality or growth inhibition) at 200 ppm (Plutella xylostella) | percent control (mortality, anti-feedant effect or growth inhibition) at 200 ppm (Spodoptera littoralis) | mortality at 200 ppm (Tetranychus urticae) | mortality at 200 ppm (Thrips tabaci)

Cc1cc(C2=NS[C@@](c3cc(Cl)cc(Cl)c3)(C(F)(F)F)C2)ccc1C(=O)N[C@H]1CON(S(=O)(=O)N(C)C)C1 [Compound A13, 4-[(5S)-5-(3,5-dichlorophenyl)-5-(trifluoromethyl)-4H-isothiazol-3-yl]-N-[(4R)-2-(dimethylsulfamoyl)isoxazolidin-4-yl]-2-methyl-benzamide]
≥ 80%: percent effect (mortality or growth inhibition) at 200 ppm (Diabrotica balteata) | percent effect (mortality or growth inhibition) at 200 ppm (Euschistus heros) | mortality at 200 ppm (Myzus persicae [2]) | percent effect (mortality or growth inhibition) at 200 ppm (Plutella xylostella) | percent control (mortality, anti-feedant effect or growth inhibition) at 200 ppm (Spodoptera littoralis) | mortality at 200 ppm (Tetranychus urticae) | mortality at 200 ppm (Thrips tabaci)

CS(=O)(=O)N1CC(NC(=O)c2ccc(C3=CSC(c4cc(Cl)c(Cl)c(Cl)c4)(C(F)(F)F)C3)cc2Cl)CO1 (centres unmarked) [Compound A1, 2-chloro-N-(2-methylsulfonylisoxazolidin-4-yl)-4-[2-(3,4,5-trichlorophenyl)-2-(trifluoromethyl)-3H-thiophen-4-yl]benzamide]
≥ 80%: percent effect (mortality or growth inhibition) at 200 ppm (Diabrotica balteata) | percent effect (mortality or growth inhibition) at 200 ppm (Euschistus heros) | mortality at 12 ppm (Myzus persicae [1]) | percent effect (mortality or growth inhibition) at 200 ppm (Plutella xylostella) | percent control (mortality, anti-feedant effect or growth inhibition) at 200 ppm (Spodoptera littoralis) | mortality at 200 ppm (Tetranychus urticae) | mortality at 200 ppm (Thrips tabaci)

Cc1nc(C2=CC(c3cc(Cl)cc(Cl)c3)(C(F)(F)F)OC2)ccc1C(=O)N[C@H]1CON(S(=O)(=O)N(C)C)C1 (stereo partly drawn) [Compound A17, 6-[5-(3,5-dichlorophenyl)-5-(trifluoromethyl)-2H-furan-3-yl]-N-[(4R)-2-(dimethylsulfamoyl)isoxazolidin-4-yl]-2-methyl-pyridine-3-carboxamide]
≥ 80%: percent effect (mortality or growth inhibition) at 200 ppm (Diabrotica balteata) | percent effect (mortality or growth inhibition) at 200 ppm (Euschistus heros) | percent effect (mortality or growth inhibition) at 200 ppm (Plutella xylostella) | percent control (mortality, anti-feedant effect or growth inhibition) at 200 ppm (Spodoptera littoralis) | mortality at 200 ppm (Tetranychus urticae) | mortality at 200 ppm (Thrips tabaci)

Cc1nc(N2CCC(c3cc(Cl)cc(Cl)c3)(C(F)(F)F)C2)ccc1C(=O)N[C@H]1CON(S(=O)(=O)N(C)C)C1 (stereo partly drawn) [Compound A16, 6-[3-(3,5-dichlorophenyl)-3-(trifluoromethyl)pyrrolidin-1-yl]-N-[(4R)-2-(dimethylsulfamoyl)isoxazolidin-4-yl]-2-methyl-pyridine-3-carboxamide]
≥ 80%: percent effect (mortality or growth inhibition) at 200 ppm (Diabrotica balteata) | percent effect (mortality or growth inhibition) at 200 ppm (Euschistus heros) | mortality at 200 ppm (Myzus persicae [2]) | percent effect (mortality or growth inhibition) at 200 ppm (Plutella xylostella) | percent control (mortality, anti-feedant effect or growth inhibition) at 200 ppm (Spodoptera littoralis) | mortality at 200 ppm (Tetranychus urticae) | mortality at 200 ppm (Thrips tabaci)

Cc1cc(C2=COC(c3cc(Cl)cc(Cl)c3)(C(F)(F)F)C2)ccc1C(=O)NC1CON(S(C)(=O)=O)C1 (centres unmarked) [Compound A3, 4-[2-(3,5-dichlorophenyl)-2-(trifluoromethyl)-3H-furan-4-yl]-2-methyl-N-(2-methylsulfonylisoxazolidin-4-yl)benzamide]
≥ 80%: percent effect (mortality or growth inhibition) at 200 ppm (Diabrotica balteata) | percent effect (mortality or growth inhibition) at 200 ppm (Euschistus heros) | mortality at 12 ppm (Myzus persicae [1]) | percent effect (mortality or growth inhibition) at 200 ppm (Plutella xylostella) | percent control (mortality, anti-feedant effect or growth inhibition) at 200 ppm (Spodoptera littoralis) | mortality at 200 ppm (Tetranychus urticae) | mortality at 200 ppm (Thrips tabaci)
